Here are results for 4 compounds from patent US7687508B2, “Cyclic derivatives as modulators of chemokine receptor activity” (Bristol-Myers Squibb Company, priority 2006, dated 2010).

The target of assay [1] is T1, human CCR2 (Homo sapiens, UniProt P41597).
T1 sequence (P41597 1-360 isoform P41597-2): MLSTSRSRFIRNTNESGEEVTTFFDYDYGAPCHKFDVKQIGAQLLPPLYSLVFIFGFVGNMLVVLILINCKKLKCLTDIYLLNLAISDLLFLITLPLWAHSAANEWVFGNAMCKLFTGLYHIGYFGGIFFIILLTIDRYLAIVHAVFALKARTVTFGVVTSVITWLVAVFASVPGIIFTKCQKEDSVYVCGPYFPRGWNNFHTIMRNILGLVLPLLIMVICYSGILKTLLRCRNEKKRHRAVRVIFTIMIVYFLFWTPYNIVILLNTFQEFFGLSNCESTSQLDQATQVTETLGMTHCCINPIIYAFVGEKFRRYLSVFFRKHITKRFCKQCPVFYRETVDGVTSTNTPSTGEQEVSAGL
Put plainly: THP-1 binding (CCR2, 125I-human MCP-1 tracer). Further details: THP-1 human monocytic leukemic cell line, which expresses endogenous CCR2; endogenous in cells; host or cells: THP-1 human monocytic leukemia cells. The note with it: metabolite examples; THP-1 cells, 125I-MCP-1. As for the experimental part:
The human CCR2 binding assay was also established with the THP-1 human monocytic leukemic cell line, which expresses endogenous CCR2, using 125I-human MCP-1 as the tracer ligand. Radioligand competition binding assays were used for assessment of binding affinity of test compounds to the CCR2 receptor. For radioligand competition studies, 100 μl containing 2.5×10^5 THP-1 cells/well (in assay buffer containing 50 mM HEPES, pH7.4, 5 mM MgCl2, 1 mM CaCl2 and 0.5% BSA) were added to 96-well assay plates containing test compound in 3-fold serial dilution, with final concentrations ranging from […]. Subsequently, 50 μl ^125I-MCP-1 radioligand at a final concentration of 0.2 nM in assay buffer were added to the reaction. After a 90 minute incubation period at room temperature, the binding reaction was terminated by harvesting on GF/B filter plates (PerkinElmer Cat. No. 6005177) followed by washing with ice-cold wash buffer (50 mM HEPES, pH 7.4, 0.1% BSA, 0.5 M NaCl) to remove unbound ligand. After washing, the plate was dried for 45 minutes at 60° C. followed by addition of 40 μl MicroScint 20 scintillation fluid, sealed and analyzed by the Packard TopCount reader. […] The competition data was plotted as a percentage inhibition of radioligand specific bound in the absence of test compound (percent of total signal). After correcting for non-specific binding, IC50 values were determined.

For assay [2], the target named is T1, human CCR2. Put plainly: Human peripheral blood mononuclear cell binding (CCR2 binding), 125I-human MCP-1 tracer. The note with it: metabolite examples; hPBMCs, 125I-MCP-1; read-out: PBMC Binding IC50. Further details: hPBMCs were isolated from human leukopak (Biological Specialty Inc.); endogenous in cells; host or cells: human peripheral blood mononuclear cells from leukopak (Biological Specialty Inc.). As for the experimental part: See also: Yoshimura et al., J. Immunol. 1990, 145, 292. The human CCR2 binding assay was established with human peripheral blood mononuclear cells (hPBMCs) using ^125I-human MCP-1 as the tracer ligand. hPBMCs were isolated from human leukopak (Biological Specialty Inc.) using a standard protocol with Ficoll-Hypaque (Mediatech Cellgro). Isolated hPBMCs were washed and diluted to 1×10^7/ml in binding buffer (RPMI-1640, 0.1% BSA, 20 mM Hepes, pH 7.4). ^125I-MCP-1 (NEN/Perk Elmer) was diluted to 0.45 nM in binding buffer. The compound was diluted in binding buffer at 3-fold the final concentrations used in the binding assay. The binding assay was performed using a 96-well filter plate (Millipore). Total ^125I-MCP-1 binding was assessed as follows: to each reaction of a total volume of 150 μl were added 5×10^5 cells, 0.15 nM […], and compound such that the final concentration ranged from 0 to 100 nM. The plate was incubated at room temperature for 30 minutes followed by three washes with RPMI-1640, 0.1% BSA, 0.4 M NaCl, 20 mM Hepes, pH 7.4 using a vacuum manifold filtration (Millipore). After washing, the plate was air-dried for 60 minutes at room temperature. This was followed by adding 25 μl of Microscint 20 into each well. The plate was sealed and counted on the Trilux for 1 minute. Non-specific binding was determined in the presence of 300 nM cold MCP-1 (PeproTech Inc.). Specific 1-MCP-1 was calculated as the difference between total and non-specific binding. All conditions were tested in duplicate.

Consider `CC(=O)N[C@@H]1C[C@H](N)CC[C@@H]1N1CC[C@H](Nc2ncnc3ccc(C(F)(F)F)cc23)C1=O` [Example 4, N-((1R,2S,5R)-5-amino-2-((3S)-2-oxo-3-((6-(trifluoromethyl)-4-quinazolinyl)amino)-1-pyrrolidinyl)cyclohexyl)acetamide], for which the IC50 (commonly the concentration that inhibits the measured activity by half) on human CCR2 [1] came to 4.22 ± 1.22 nM; on human CCR2 [2], 3.46 ± 1.1 nM.

Regarding `CC(=O)N[C@@H]1C[C@H](N(C)C(C)C)CC[C@@H]1N1CC[C@H](Nc2nc[n+]([O-])c3ccc(C(F)(F)F)cc23)C1=O` [Example 5, N-((1R,2S,5R)-5-(isopropyl(methyl)amino)-2-((3S)-3-((1-oxido-6-(trifluoromethyl)-4-quinazolinyl)amino)-2-oxo-1-pyrrolidinyl)cyclohexyl)acetamide], the results for the concentration for half-maximal inhibition (IC50) at human CCR2 [1] and on human CCR2 [2] were 21.3 nM and 27.5 ± 1.4 nM, respectively.

Turning to `CC(=O)N[C@@H]1C[C@H](NC(C)C)CC[C@@H]1N1CC[C@H](Nc2nc[n+]([O-])c3ccc(C(F)(F)F)cc23)C1=O` [Example 6, N-((1R,2S,5R)-5-(isopropylamino)-2-((3S)-3-((1-oxido-6-(trifluoromethyl)-4-quinazolinyl)amino)-2-oxo-1-pyrrolidinyl)cyclohexyl)acetamide], at human CCR2 [1], the 50% inhibitory concentration (IC50) worked out at 139 nM.

In the case of `CC(=O)N[C@@H]1C[C@H](NC(C)(C)C)CC[C@@H]1N1CC[C@H](Nc2nc[n+]([O-])c3ccc(C(F)(F)F)cc23)C1=O` [Example 14, N-((1R,2S,5R)-5-(tert-butylamino)-2-((3S)-3-((1-oxido-6-(trifluoromethyl)-4-quinazolinyl)amino)-2-oxo-1-pyrrolidinyl)cyclohexyl)acetamide], the values for the half-maximal inhibitory concentration (IC50) at human CCR2 [1] and at human CCR2 [2] were 19.9 nM and 14.9 ± 5.2 nM, respectively.
